Test results reported in patent US20070004689A1, “Antiangiogenic agents” (priority 2004, published 2007).
Read-outs that look alike come from different tables or passages of the source.

Experiments:
[1] = tested on: MDA-MB-231 a human breast carcinoma; experiment: BrdU proliferation assay, MDA-MB-231 (anti-tumor activity); type: cell-based; conditions: BrdU DNA synthesis, 48 h exposure, read-out: MDA-MB-231 (IC50 μM)
From the text: (§1) Cell Culture: Human umbilical vein endothelial cells (HUVEC) were obtained from Clonetics (San Diego, Calif.), MCF7 cells were the kind gift of Dr. Dorraya El Ashry (University of Michigan), MDA-MB-231 a human breast carcinoma, PC3 a human prostate carcinoma, and U87-MG a human glioma, cell lines were obtained from ATCC. HUVEC cultures were maintained for up to 5 passages in EGM containing bovine brain extract (Clonetics) and 1× antibiotic-antimycotic (BioWhittaker, Walkersville, Md.). MDA-MB-231, PC3, U87-MG and MCF-7 cells were maintained in DMEM/F12 (1:1) containing 10% (v/v) fetal bovine serum (Hyclone Laboratories, Logan, Utah) and 1× antibiotic-antimycotic. MCF7 cells were used between passage 60 and passage 100.
(§2) Proliferation Assays: Proliferation was measured by cell counting using a Coulter Zl cell counter (Coulter Corporation, Hialeah, Fla.) or by evaluation of DNA synthesis. Each condition was done in triplicate and experiments were repeated at least twice. To determine estrogenicity of the analogs, MCF7 estrogen-dependent proliferation assays were performed. The cells were seeded in complete media at 10,000 cells/well in a 24 well plate after allowing the cells to adhere overnight and the seeding density was determined by cell counts. Cells were washed with PBS (37° C.) and starved by placing them in IMEM-phenol red free media containing 2% charcoal-dextran fetal bovine-stripped serum (Valley Biomedical, Winchester, Va.) and 1× antibiotic-antimycotic. After 3 days of starvation, cells were treated with or without increasing concentrations of compounds, replacing the media every 2-3 days and counted after 7 days of treatment. In order to ensure that only the added test compounds stimulated growth, experiments were performed only with cell cultures that duplicated less than once during the starvation period. Values are expressed as MCF7 stimulation index (SI) relative to 2ME2 (defined as 1.00). A value less than 1.00 indicates reduced estrogenicity. Estradiol is used as a positive control.
(§3) To determine anti-tumor and anti-angiogenic activities of the analogs, proliferation assays were performed by evaluating detection of DNA synthesis by use of the 5-bromo-2′-deoxyuridine (BrdU) cell proliferation colorimetric ELISA kit from Roche (Indianapolis, Ind.) according to the manufacturer's instructions. For BrdU assays, the cells were seeded at 1,000 cells/well (MDA-MB-231, anti-tumor activity) or 3,000 cells/well (HUVEC, anti-angiogenic activity) in a 96 well plate, allowed to attach overnight and then exposed to the compound for 48 h. IC50 value is the concentration at which cell proliferation is inhibited by 50%.
(§4) Antiproliferative activity of the NCEs were assessed in tumor cell lines (MDA-MB-231 a breast carcinoma, PC3 a prostate carcinoma and U87-MG a glioma) and endothelial cells (HUVEC).

U87-MG a human glioma = experiment: Proliferation assay, U87-MG; type: cell-based; conditions: proliferation, read-out: U87-MG (IC50 μM)
From the text: as §1, §2, §3, §4

[2] = tested on: Human umbilical vein endothelial cells (HUVEC); experiment: BrdU proliferation assay, HUVEC (anti-angiogenic activity); type: cell-based; conditions: BrdU DNA synthesis, 48 h exposure, read-out: HUVEC (IC50 μM)
From the text: as §1, §2, §3, §4

[3] = Rat pharmacokinetics, cassette dosing, oral; type: in vivo; conditions: oral 5 mg/kg, plasma
Description: Pharmokinetics (PK): PO Cmax is the maximal concentration of drug achieved after oral administration in rats and AUC is the area under the curve. These parameters are an indication of oral bioavailability. PK parameters were determined using a cassette-dosing approach. A group of new chemical entities (NCEs) (usually 3-6 molecules) was dissolved in DMSO or ethanol and diluted with a solution of a dextrin polymer to the final working concentration (usually 0.2-2 mg/mL). Groups of three rats with in-dwelling catheters were dosed either orally (5 mg/kg) or i.v. (1 mg/kg) with the cassette of NCEs. Blood was collected at nine time points from 2 minutes to 24 hours. Plasma was separated and aliquots of the replicate samples were pooled for analysis. Plasma proteins were precipitated by addition of organic solvent (most often methanol or acetonitrile). For some analogs, an acid modifier was added to the precipitation mixture to enhance recovery. Precipitated proteins were removed by centrifugation and the supernatant was injected onto a C18 reversed phase column attached to an LC-MS-MS mass spectrometer. Analytes were partly resolved by a rapid (5 minute) gradient of organic modifier. Analytes were measured as either positive or negative ions, depending on ionization characteristics, in the SRM (or MS-MS) mode. Quantification was carried out by correlation of peak heights or areas for each analyte to a set of concentration standards of the same analytes diluted into blank plasma. Concentration vs. time data was analyzed by WinNonLin.

[4] = tested on: human hepatocyte suspensions; experiment: Hepatocyte incubations, human; type: in vitro ADME; conditions: human hepatocytes, NR = no reaction; for Hepatocyte Human 60/120′ (1 uM): 60′ / Hepatocyte Human 60/120′ (5 uM): 60′: 60 minutes; for Hepatocyte Human 60/120′ (1 uM): 120′ / Hepatocyte Human 60/120′ (5 uM): 120′: 120 minutes
Description: Hepatocyte Incubations: An in vitro measure of metabolism using cells from rat and human liver. Rat and human hepatocyte suspensions (10^6 cells per mL of serum-free (H)CL15 culture medium) were incubated with 2 concentrations (1 and 5 μM) of each of the compounds. Stock solutions were prepared in DMSO, and were further diluted in culture medium to the final test concentrations. 7-Ethoxycoumarin (7-EC) were included as a positive control substrate for P450. A 0.1 M 7-EC stock solution was prepared in DMSO, and the final assay concentration was 100 μM. The reactions were initiated by the addition of the substrates, incubated at 37° C., and terminated after 0, 60 and 120 minutes by addition of acetonitrile. The positive 7-EC control reactions were stopped with perchloric acid or ZnSO4 and BaOH after 60-minutes of incubation. The reaction mixture was centrifuged to remove the cell debris, and the supernatant was used for subsequent analysis by HPLC/LC-MS. If necessary, the supernatants were flash frozen in liquid N2 and stored at −70° C. until further analysis. HPLC was used to analyze product formation from 7-EC. Analyses to determine the concentration of the test compounds were carried out using reverse phase HPLC with tandem mass spectrometric detection (LC-MS/MS). Samples were analyzed to measure the disappearance of parent compound over time. The rate of metabolism was estimated by fitting a curve to the data for each concentration against time using GraphPad Prism Version 3.02 software.

| Hepatocyte Human 60/120′ (1 uM): 60′ [4] | IC50 [1] | IC50 (U87-MG a human glioma) | Cmax [3] | Rat PO AUC (nM) [3] | Hepatocyte Human 60/120′ (5 uM): 60′ [4] | SMILES | IC50 ([1]; Homo sapiens, MDA-MB-231) | IC50 (U87-MG a human glioma; Homo sapiens, U-87 MG) | IC50 ([2]; Homo sapiens, HUVEC) | AUC ([3]; rat) | Cmax ([3]; rat) | Hepatocyte Human 60/120′ (1 uM): 120′ [4] | Hepatocyte Human 60/120′ (5 uM): 120′ [4] | IC50 [2] |
| --- | --- | --- | --- | --- | --- | --- | --- | --- | --- | --- | --- | --- | --- | --- |
| 111 | 2.37 ± 0.8 µM | 10 ± 2.49 µM | 130 nM | 0.624 µM·h | 117 | COc1cc2c(cc1C(N)=O)CC[C@@H]1[C@@H]2CC[C@]2(C)CCC[C@@H]12 [Compound 57, (2-Methoxyestra-1,3,5(10)-trien-3-yl)-3-carboxamide] |  |  |  |  |  | 98 | 118 | 0.96 ± 0.26 µM |
| 52 | 0.19 ± 0.04 µM | 0.23 ± 0.08 µM | 127 nM | 0.961 µM·h | 92 | COc1cc2c(cc1C(N)=O)CC[C@@H]1[C@@H]2CC[C@]2(C)C=CC[C@@H]12 [Compound 63, 3-carboxamide-2-methoxy-1,3,5(10)16-estratetraene] |  |  |  |  |  | 70 | 71 | 0.13 ± 0.05 µM |

| SMILES | Hepatocyte Human 60/120′ (1 uM): 60′ [4] | IC50 [1] | IC50 (U87-MG a human glioma) | Cmax [3] | Rat PO AUC (nM) [3] | Hepatocyte Human 60/120′ (5 uM): 60′ [4] | IC50 ([1]; Homo sapiens, MDA-MB-231) | IC50 (U87-MG a human glioma; Homo sapiens, U-87 MG) | IC50 ([2]; Homo sapiens, HUVEC) | AUC ([3]; rat) | Cmax ([3]; rat) | Hepatocyte Human 60/120′ (1 uM): 120′ [4] | Hepatocyte Human 60/120′ (5 uM): 120′ [4] | IC50 [2] |
| --- | --- | --- | --- | --- | --- | --- | --- | --- | --- | --- | --- | --- | --- | --- |
| COc1cc2c(cc1C(N)=O)CC[C@@H]1[C@@H]2CC[C@]2(C)C(=O)CC[C@@H]12 [Compound 54, 2-methoxy-17-oxoestra-1,3,5(10)-triene-3-carboxamide] | 99 |  |  |  |  |  | 2.2 ± 0.43 µM | 2.23 ± 0.4 µM | 5.46 ± 1.57 µM | 0.185 µM·h | 47 nM | 102 | 103 |  |
| C=C1CC[C@H]2[C@@H]3CCc4cc(C(N)=O)c(OC)cc4[C@H]3CC[C@]12C [Compound 60, 2-Methoxy-17-methyleneestra-1,3,5(10)-triene-3-carboxamide] |  |  |  |  |  | 96 | 0.19 ± 0.08 µM | 0.25 ± 0.02 µM | 0.12 ± 0.06 µM | 1.4 µM·h | 185 nM | 91 | 93 |  |
